Experimental data as given in the kinase profiling compilation of Christmann-Franck et al. (2016).

Each molecule was assayed against TTK (human) (UniProt P33981) (assay: radiometric filter-binding kinase assay). Settings: compound 100.0 µM; ATP 20 µM.
In the case of `COc1ccc(-c2cc3c(=O)[nH]cnc3s2)cc1OC`, the inhibition is reported as 25%. Molecule `COc1ccc(NC(=S)Nc2cnc3[nH]cnn3c2=O)cn1` has an inhibition of 0%. `CC(=O)Nc1nc2cnc(-c3c(C)cccc3C)cn2n1` gave an inhibition of 0%. `CC(C)(C)Nc1c(C2CC2)nc2[nH]cnn12` was tested, and the inhibition was 10%. `O=c1cc(-c2ccccc2F)nc2[nH]ccn12` gave an inhibition of 11%.

These molecules were tested against RPS6KA3 KD1 KD2 (human) (UniProt P51812) (assay: radiometric filter-binding kinase assay). Settings: compound 100.0 µM; ATP 50 µM.
In the case of `COc1ccc(-c2cc3c(=O)[nH]cnc3s2)cc1OC`, the inhibition is reported as 52%. `COc1ccc(NC(=S)Nc2cnc3[nH]cnn3c2=O)cn1` was tested, and the inhibition was 47%. Work on `CC(=O)Nc1nc2cnc(-c3c(C)cccc3C)cn2n1` yielded an inhibition of 23%. `CC(C)(C)Nc1c(C2CC2)nc2[nH]cnn12` showed an inhibition of 13%. Molecule `O=c1cc(-c2ccccc2F)nc2[nH]ccn12` has an inhibition of 25%.

Each molecule was assayed against BRSK1 (human) (UniProt Q8TDC3) (assay: radiometric filter-binding kinase assay). Settings: compound 100.0 µM; ATP 20 µM.
For `COc1ccc(-c2cc3c(=O)[nH]cnc3s2)cc1OC`, the inhibition was 45%. With `COc1ccc(NC(=S)Nc2cnc3[nH]cnn3c2=O)cn1` the inhibition was 10%. `CC(=O)Nc1nc2cnc(-c3c(C)cccc3C)cn2n1` gave an inhibition of 0%. `CC(C)(C)Nc1c(C2CC2)nc2[nH]cnn12` gave an inhibition of 0%. With `O=c1cc(-c2ccccc2F)nc2[nH]ccn12` the inhibition was 44%.

Each molecule was assayed against GSK3B (human) (UniProt P49841) (assay: radiometric filter-binding kinase assay). Settings: compound 100.0 µM; ATP 5 µM.
`COc1ccc(-c2cc3c(=O)[nH]cnc3s2)cc1OC` showed an inhibition of 62%. With `COc1ccc(NC(=S)Nc2cnc3[nH]cnn3c2=O)cn1` the inhibition was 2%. With `CC(=O)Nc1nc2cnc(-c3c(C)cccc3C)cn2n1` the inhibition was 8%. `CC(C)(C)Nc1c(C2CC2)nc2[nH]cnn12` gave an inhibition of 24%. `O=c1cc(-c2ccccc2F)nc2[nH]ccn12` gave an inhibition of 44%.

What follows are molecules tested against EEF2K (human) (UniProt O00418) (assay: radiometric filter-binding kinase assay). Settings: compound 100.0 µM; ATP 5 µM.
`COc1ccc(-c2cc3c(=O)[nH]cnc3s2)cc1OC` was tested, and the inhibition was 2%. Molecule `COc1ccc(NC(=S)Nc2cnc3[nH]cnn3c2=O)cn1` has an inhibition of 10%. `CC(=O)Nc1nc2cnc(-c3c(C)cccc3C)cn2n1` was tested, and the inhibition was 7%. Work on `CC(C)(C)Nc1c(C2CC2)nc2[nH]cnn12` yielded an inhibition of 18%. In the case of `O=c1cc(-c2ccccc2F)nc2[nH]ccn12`, the inhibition is reported as 7%.

These molecules were tested against MAPK8 (human) (UniProt P45983) (assay: radiometric filter-binding kinase assay). Settings: compound 100.0 µM; ATP 20 µM.
`COc1ccc(-c2cc3c(=O)[nH]cnc3s2)cc1OC` showed an inhibition of 8%. In the case of `COc1ccc(NC(=S)Nc2cnc3[nH]cnn3c2=O)cn1`, the inhibition is reported as 2%. For `CC(=O)Nc1nc2cnc(-c3c(C)cccc3C)cn2n1`, the inhibition was 0%. `CC(C)(C)Nc1c(C2CC2)nc2[nH]cnn12` gave an inhibition of 0%. `O=c1cc(-c2ccccc2F)nc2[nH]ccn12` was tested, and the inhibition was 0%.

The molecules below were run against RPS6KA5 KD1 KD2 (human) (UniProt O75582) (assay: radiometric filter-binding kinase assay). Settings: compound 100.0 µM; ATP 20 µM.
Chain of RPS6KA5 KD1 KD2 (human) (O75582 whole entry, looked up): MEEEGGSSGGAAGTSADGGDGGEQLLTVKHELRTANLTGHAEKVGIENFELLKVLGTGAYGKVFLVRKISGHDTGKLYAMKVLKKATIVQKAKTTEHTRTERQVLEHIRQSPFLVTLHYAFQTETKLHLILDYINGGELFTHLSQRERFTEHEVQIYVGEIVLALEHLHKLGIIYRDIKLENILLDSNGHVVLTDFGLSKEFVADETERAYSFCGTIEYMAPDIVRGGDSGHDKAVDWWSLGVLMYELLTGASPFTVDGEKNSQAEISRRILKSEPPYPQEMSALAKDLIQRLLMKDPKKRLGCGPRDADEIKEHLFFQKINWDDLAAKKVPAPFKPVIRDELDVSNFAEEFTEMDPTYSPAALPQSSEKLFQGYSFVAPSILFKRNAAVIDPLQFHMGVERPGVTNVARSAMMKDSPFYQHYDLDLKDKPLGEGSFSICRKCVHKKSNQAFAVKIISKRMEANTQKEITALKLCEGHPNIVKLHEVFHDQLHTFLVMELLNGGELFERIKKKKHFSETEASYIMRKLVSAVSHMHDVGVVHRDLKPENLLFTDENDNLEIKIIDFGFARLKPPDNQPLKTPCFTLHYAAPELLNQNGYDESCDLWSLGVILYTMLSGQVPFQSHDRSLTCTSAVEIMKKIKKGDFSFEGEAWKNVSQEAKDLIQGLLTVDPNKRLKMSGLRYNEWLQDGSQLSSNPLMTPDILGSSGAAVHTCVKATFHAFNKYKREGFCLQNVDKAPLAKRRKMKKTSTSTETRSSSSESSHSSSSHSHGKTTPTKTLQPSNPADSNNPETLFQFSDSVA
In the case of `COc1ccc(-c2cc3c(=O)[nH]cnc3s2)cc1OC`, the inhibition is reported as 22%. Work on `COc1ccc(NC(=S)Nc2cnc3[nH]cnn3c2=O)cn1` yielded an inhibition of 28%. `CC(=O)Nc1nc2cnc(-c3c(C)cccc3C)cn2n1` was tested, and the inhibition was 0%. Molecule `CC(C)(C)Nc1c(C2CC2)nc2[nH]cnn12` has an inhibition of 0%. In the case of `O=c1cc(-c2ccccc2F)nc2[nH]ccn12`, the inhibition is reported as 21%.

What follows are molecules tested against MAPK1 (human) (UniProt P28482) (assay: radiometric filter-binding kinase assay). Settings: compound 100.0 µM; ATP 20 µM.
Chain of MAPK1 (human) (P28482 whole entry, looked up): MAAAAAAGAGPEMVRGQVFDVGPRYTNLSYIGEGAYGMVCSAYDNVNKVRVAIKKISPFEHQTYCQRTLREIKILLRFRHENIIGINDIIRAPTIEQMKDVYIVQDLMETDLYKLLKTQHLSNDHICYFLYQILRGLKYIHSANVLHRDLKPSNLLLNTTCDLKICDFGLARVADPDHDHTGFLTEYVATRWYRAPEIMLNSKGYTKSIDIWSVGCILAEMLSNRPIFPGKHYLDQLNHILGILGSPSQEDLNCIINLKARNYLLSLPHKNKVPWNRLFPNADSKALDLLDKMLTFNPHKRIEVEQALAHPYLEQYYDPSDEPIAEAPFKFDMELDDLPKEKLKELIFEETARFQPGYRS
`COc1ccc(-c2cc3c(=O)[nH]cnc3s2)cc1OC` gave an inhibition of 0%. In the case of `COc1ccc(NC(=S)Nc2cnc3[nH]cnn3c2=O)cn1`, the inhibition is reported as 13%. In the case of `CC(=O)Nc1nc2cnc(-c3c(C)cccc3C)cn2n1`, the inhibition is reported as 0%. Work on `CC(C)(C)Nc1c(C2CC2)nc2[nH]cnn12` yielded an inhibition of 0%. With `O=c1cc(-c2ccccc2F)nc2[nH]ccn12` the inhibition was 8%.

What follows are molecules tested against PRKCA (human) (UniProt P17252) (assay: radiometric filter-binding kinase assay). Settings: compound 100.0 µM; ATP 20 µM.
In the case of `COc1ccc(-c2cc3c(=O)[nH]cnc3s2)cc1OC`, the inhibition is reported as 18%. Work on `COc1ccc(NC(=S)Nc2cnc3[nH]cnn3c2=O)cn1` yielded an inhibition of 23%. Work on `CC(=O)Nc1nc2cnc(-c3c(C)cccc3C)cn2n1` yielded an inhibition of 0%. Work on `CC(C)(C)Nc1c(C2CC2)nc2[nH]cnn12` yielded an inhibition of 0%. For `O=c1cc(-c2ccccc2F)nc2[nH]ccn12`, the inhibition was 2%.

These molecules were tested against PAK7 (human) (UniProt Q9P286) (assay: radiometric filter-binding kinase assay). Settings: compound 100.0 µM; ATP 20 µM.
`COc1ccc(-c2cc3c(=O)[nH]cnc3s2)cc1OC` gave an inhibition of 0%. Molecule `COc1ccc(NC(=S)Nc2cnc3[nH]cnn3c2=O)cn1` has an inhibition of 0%. With `CC(=O)Nc1nc2cnc(-c3c(C)cccc3C)cn2n1` the inhibition was 5%. `CC(C)(C)Nc1c(C2CC2)nc2[nH]cnn12` was tested, and the inhibition was 18%. For `O=c1cc(-c2ccccc2F)nc2[nH]ccn12`, the inhibition was 0%.

Each molecule was assayed against PIM3 (human) (UniProt Q86V86) (assay: radiometric filter-binding kinase assay). Settings: compound 100.0 µM; ATP 20 µM.
Molecule `COc1ccc(-c2cc3c(=O)[nH]cnc3s2)cc1OC` has an inhibition of 61%. `COc1ccc(NC(=S)Nc2cnc3[nH]cnn3c2=O)cn1` was tested, and the inhibition was 0%. Work on `CC(=O)Nc1nc2cnc(-c3c(C)cccc3C)cn2n1` yielded an inhibition of 1%. With `CC(C)(C)Nc1c(C2CC2)nc2[nH]cnn12` the inhibition was 0%. For `O=c1cc(-c2ccccc2F)nc2[nH]ccn12`, the inhibition was 83%.

What follows are molecules tested against MAP3K5 (human) (UniProt Q99683) (assay: radiometric filter-binding kinase assay). Settings: compound 100.0 µM; ATP 50 µM.
`COc1ccc(-c2cc3c(=O)[nH]cnc3s2)cc1OC` showed an inhibition of 19%. With `COc1ccc(NC(=S)Nc2cnc3[nH]cnn3c2=O)cn1` the inhibition was 16%. `CC(=O)Nc1nc2cnc(-c3c(C)cccc3C)cn2n1` showed an inhibition of 0%. Work on `CC(C)(C)Nc1c(C2CC2)nc2[nH]cnn12` yielded an inhibition of 4%. With `O=c1cc(-c2ccccc2F)nc2[nH]ccn12` the inhibition was 8%.

What follows are molecules tested against EPHB2 (human) (UniProt P29323) (assay: radiometric filter-binding kinase assay). Settings: compound 100.0 µM; ATP 20 µM.
Chain of EPHB2 (human) (P29323 whole entry, looked up): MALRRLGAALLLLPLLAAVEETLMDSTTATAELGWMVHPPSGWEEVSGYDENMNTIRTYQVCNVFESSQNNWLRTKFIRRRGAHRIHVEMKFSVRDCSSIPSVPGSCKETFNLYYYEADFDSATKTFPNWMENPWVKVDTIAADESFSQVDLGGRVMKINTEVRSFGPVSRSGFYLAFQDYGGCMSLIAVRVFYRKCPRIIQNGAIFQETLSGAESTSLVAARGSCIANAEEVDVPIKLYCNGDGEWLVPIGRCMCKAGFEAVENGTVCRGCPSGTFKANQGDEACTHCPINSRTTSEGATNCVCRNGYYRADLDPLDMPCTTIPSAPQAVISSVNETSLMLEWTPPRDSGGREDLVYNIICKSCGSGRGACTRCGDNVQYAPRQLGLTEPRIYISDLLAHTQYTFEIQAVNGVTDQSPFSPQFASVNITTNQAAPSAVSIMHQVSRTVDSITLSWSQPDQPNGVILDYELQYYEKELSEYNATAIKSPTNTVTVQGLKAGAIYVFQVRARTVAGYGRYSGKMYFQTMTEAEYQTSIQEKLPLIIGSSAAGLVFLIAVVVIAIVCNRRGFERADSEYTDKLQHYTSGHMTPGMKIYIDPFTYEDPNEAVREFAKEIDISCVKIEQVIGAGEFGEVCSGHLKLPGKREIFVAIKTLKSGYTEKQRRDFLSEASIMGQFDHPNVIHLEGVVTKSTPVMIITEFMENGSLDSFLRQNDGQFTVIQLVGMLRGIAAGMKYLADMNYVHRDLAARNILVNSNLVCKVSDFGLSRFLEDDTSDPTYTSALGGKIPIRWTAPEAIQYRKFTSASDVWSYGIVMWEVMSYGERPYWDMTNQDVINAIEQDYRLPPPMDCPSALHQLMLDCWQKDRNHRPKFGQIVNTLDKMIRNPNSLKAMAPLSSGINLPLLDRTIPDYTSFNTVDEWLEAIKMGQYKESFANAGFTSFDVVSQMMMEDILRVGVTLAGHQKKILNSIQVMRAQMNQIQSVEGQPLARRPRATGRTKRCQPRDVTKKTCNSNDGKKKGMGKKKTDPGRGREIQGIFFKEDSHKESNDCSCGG
Work on `COc1ccc(-c2cc3c(=O)[nH]cnc3s2)cc1OC` yielded an inhibition of 17%. Work on `COc1ccc(NC(=S)Nc2cnc3[nH]cnn3c2=O)cn1` yielded an inhibition of 22%. Molecule `CC(=O)Nc1nc2cnc(-c3c(C)cccc3C)cn2n1` has an inhibition of 0%. With `CC(C)(C)Nc1c(C2CC2)nc2[nH]cnn12` the inhibition was 0%. For `O=c1cc(-c2ccccc2F)nc2[nH]ccn12`, the inhibition was 0%.

Each molecule was assayed against TAOK1 (human) (UniProt Q7L7X3) (assay: radiometric filter-binding kinase assay). Settings: compound 100.0 µM; ATP 20 µM.
Chain of TAOK1 (human) (Q7L7X3 whole entry, looked up): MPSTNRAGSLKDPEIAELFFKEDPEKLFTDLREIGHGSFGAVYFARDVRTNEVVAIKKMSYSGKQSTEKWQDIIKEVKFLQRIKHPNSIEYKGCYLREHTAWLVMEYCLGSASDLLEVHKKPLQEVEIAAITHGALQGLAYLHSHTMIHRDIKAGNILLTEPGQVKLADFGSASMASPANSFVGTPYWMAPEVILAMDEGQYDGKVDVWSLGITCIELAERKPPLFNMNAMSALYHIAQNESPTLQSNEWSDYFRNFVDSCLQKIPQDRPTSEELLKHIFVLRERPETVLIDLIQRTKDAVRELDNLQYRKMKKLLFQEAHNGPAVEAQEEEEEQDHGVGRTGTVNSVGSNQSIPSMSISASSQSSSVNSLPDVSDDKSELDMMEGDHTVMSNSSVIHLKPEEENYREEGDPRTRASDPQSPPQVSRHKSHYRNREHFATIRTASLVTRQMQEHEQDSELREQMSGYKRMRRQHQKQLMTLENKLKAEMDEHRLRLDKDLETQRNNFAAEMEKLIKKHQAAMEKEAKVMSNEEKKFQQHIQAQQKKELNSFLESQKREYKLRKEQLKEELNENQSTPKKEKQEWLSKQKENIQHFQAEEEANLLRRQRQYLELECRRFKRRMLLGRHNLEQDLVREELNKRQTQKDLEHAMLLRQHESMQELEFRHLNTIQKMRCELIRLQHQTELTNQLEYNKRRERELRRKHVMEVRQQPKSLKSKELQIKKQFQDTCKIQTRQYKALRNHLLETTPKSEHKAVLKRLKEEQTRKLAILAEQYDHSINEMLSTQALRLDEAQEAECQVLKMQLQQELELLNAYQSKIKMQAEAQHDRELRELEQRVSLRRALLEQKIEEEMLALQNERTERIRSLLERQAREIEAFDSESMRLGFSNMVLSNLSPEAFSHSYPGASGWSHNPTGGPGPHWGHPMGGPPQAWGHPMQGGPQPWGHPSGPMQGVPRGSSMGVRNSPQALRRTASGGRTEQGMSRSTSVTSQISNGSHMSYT
In the case of `COc1ccc(-c2cc3c(=O)[nH]cnc3s2)cc1OC`, the inhibition is reported as 28%. `COc1ccc(NC(=S)Nc2cnc3[nH]cnn3c2=O)cn1` gave an inhibition of 0%. For `CC(=O)Nc1nc2cnc(-c3c(C)cccc3C)cn2n1`, the inhibition was 1%. For `CC(C)(C)Nc1c(C2CC2)nc2[nH]cnn12`, the inhibition was 0%. For `O=c1cc(-c2ccccc2F)nc2[nH]ccn12`, the inhibition was 3%.

These molecules were tested against MARK1 (human) (UniProt Q9P0L2) (assay: radiometric filter-binding kinase assay). Settings: compound 100.0 µM; ATP 20 µM.
In the case of `COc1ccc(-c2cc3c(=O)[nH]cnc3s2)cc1OC`, the inhibition is reported as 27%. For `COc1ccc(NC(=S)Nc2cnc3[nH]cnn3c2=O)cn1`, the inhibition was 32%. `CC(=O)Nc1nc2cnc(-c3c(C)cccc3C)cn2n1` showed an inhibition of 0%. `CC(C)(C)Nc1c(C2CC2)nc2[nH]cnn12` showed an inhibition of 0%. Work on `O=c1cc(-c2ccccc2F)nc2[nH]ccn12` yielded an inhibition of 5%.

The molecules below were run against ZAP70 (human) (UniProt P43403) (assay: radiometric filter-binding kinase assay). Settings: compound 100.0 µM; ATP 5 µM.
Chain of ZAP70 (human) (P43403 whole entry, looked up): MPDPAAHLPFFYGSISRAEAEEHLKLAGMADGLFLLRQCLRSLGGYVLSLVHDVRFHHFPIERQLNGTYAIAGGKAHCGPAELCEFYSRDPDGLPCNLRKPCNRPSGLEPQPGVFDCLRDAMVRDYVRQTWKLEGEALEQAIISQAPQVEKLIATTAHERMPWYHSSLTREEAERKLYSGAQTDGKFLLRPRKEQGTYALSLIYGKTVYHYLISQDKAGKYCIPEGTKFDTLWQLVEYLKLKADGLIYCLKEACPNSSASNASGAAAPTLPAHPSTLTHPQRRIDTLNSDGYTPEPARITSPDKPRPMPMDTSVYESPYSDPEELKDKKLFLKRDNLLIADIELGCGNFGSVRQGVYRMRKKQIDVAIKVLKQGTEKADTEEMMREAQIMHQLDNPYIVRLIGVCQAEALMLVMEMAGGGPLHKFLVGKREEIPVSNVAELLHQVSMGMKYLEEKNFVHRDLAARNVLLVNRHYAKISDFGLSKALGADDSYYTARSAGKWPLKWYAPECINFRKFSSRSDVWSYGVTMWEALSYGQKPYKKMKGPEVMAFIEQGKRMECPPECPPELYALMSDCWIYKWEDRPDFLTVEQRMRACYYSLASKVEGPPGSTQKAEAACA
`COc1ccc(-c2cc3c(=O)[nH]cnc3s2)cc1OC` was tested, and the inhibition was 0%. For `COc1ccc(NC(=S)Nc2cnc3[nH]cnn3c2=O)cn1`, the inhibition was 23%. Work on `CC(=O)Nc1nc2cnc(-c3c(C)cccc3C)cn2n1` yielded an inhibition of 9%. `CC(C)(C)Nc1c(C2CC2)nc2[nH]cnn12` was tested, and the inhibition was 1%. `O=c1cc(-c2ccccc2F)nc2[nH]ccn12` was tested, and the inhibition was 0%.

These molecules were tested against IKBKE (human) (UniProt Q14164) (assay: radiometric filter-binding kinase assay). Settings: compound 100.0 µM; ATP 50 µM.
In the case of `COc1ccc(-c2cc3c(=O)[nH]cnc3s2)cc1OC`, the inhibition is reported as 32%. `COc1ccc(NC(=S)Nc2cnc3[nH]cnn3c2=O)cn1` gave an inhibition of 0%. In the case of `CC(=O)Nc1nc2cnc(-c3c(C)cccc3C)cn2n1`, the inhibition is reported as 0%. `CC(C)(C)Nc1c(C2CC2)nc2[nH]cnn12` gave an inhibition of 0%. Molecule `O=c1cc(-c2ccccc2F)nc2[nH]ccn12` has an inhibition of 22%.

Each molecule was assayed against RIPK2 (human) (UniProt O43353) (assay: radiometric filter-binding kinase assay). Settings: compound 100.0 µM; ATP 20 µM.
Chain of RIPK2 (human) (O43353 whole entry, looked up): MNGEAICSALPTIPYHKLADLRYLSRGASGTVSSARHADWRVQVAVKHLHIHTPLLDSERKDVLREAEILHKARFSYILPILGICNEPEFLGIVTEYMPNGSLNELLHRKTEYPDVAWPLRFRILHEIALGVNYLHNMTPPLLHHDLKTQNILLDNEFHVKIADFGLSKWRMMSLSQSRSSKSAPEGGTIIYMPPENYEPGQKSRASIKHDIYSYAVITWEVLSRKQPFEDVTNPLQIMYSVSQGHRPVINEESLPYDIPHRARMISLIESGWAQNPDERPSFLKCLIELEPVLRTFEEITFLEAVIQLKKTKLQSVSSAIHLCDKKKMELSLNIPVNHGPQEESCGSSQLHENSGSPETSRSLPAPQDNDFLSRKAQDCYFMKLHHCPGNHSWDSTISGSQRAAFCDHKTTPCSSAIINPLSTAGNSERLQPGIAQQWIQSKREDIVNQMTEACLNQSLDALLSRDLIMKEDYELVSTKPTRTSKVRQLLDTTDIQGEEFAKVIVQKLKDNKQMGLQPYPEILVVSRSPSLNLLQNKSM
`COc1ccc(-c2cc3c(=O)[nH]cnc3s2)cc1OC` showed an inhibition of 65%. `COc1ccc(NC(=S)Nc2cnc3[nH]cnn3c2=O)cn1` gave an inhibition of 0%. `CC(=O)Nc1nc2cnc(-c3c(C)cccc3C)cn2n1` was tested, and the inhibition was 5%. `CC(C)(C)Nc1c(C2CC2)nc2[nH]cnn12` showed an inhibition of 0%. `O=c1cc(-c2ccccc2F)nc2[nH]ccn12` gave an inhibition of 57%.

Each molecule was assayed against CSK (human) (UniProt P41240) (assay: radiometric filter-binding kinase assay). Settings: compound 100.0 µM; ATP 20 µM.
`COc1ccc(-c2cc3c(=O)[nH]cnc3s2)cc1OC` gave an inhibition of 14%. `COc1ccc(NC(=S)Nc2cnc3[nH]cnn3c2=O)cn1` gave an inhibition of 20%. Molecule `CC(=O)Nc1nc2cnc(-c3c(C)cccc3C)cn2n1` has an inhibition of 0%. Molecule `CC(C)(C)Nc1c(C2CC2)nc2[nH]cnn12` has an inhibition of 0%. Molecule `O=c1cc(-c2ccccc2F)nc2[nH]ccn12` has an inhibition of 8%.

Each molecule was assayed against IRAK4 (human) (UniProt Q9NWZ3) (assay: radiometric filter-binding kinase assay). Settings: compound 100.0 µM; ATP 20 µM.
Work on `COc1ccc(-c2cc3c(=O)[nH]cnc3s2)cc1OC` yielded an inhibition of 9%. For `COc1ccc(NC(=S)Nc2cnc3[nH]cnn3c2=O)cn1`, the inhibition was 0%.
